Results from patent US20180153890A1, “PHARMACEUTICAL COMPOSITIONS AND USE THEREOF” (Hutchison MediPharma Limited, priority 2015, published 2018).
pIC50: −log10 of the molar value. Marks after values point to notes of the source that are not given here.

What was measured:
NCI-H716 cells = assay: Cell viability assay on NCI-H716 (CCK-8); assay type: cell-based; conditions: Homo sapiens, 72 h incubation, read-out: IC50 on inhibition of NCI-H716 cells viability
Protocol: NCI-H716: human cecum colorectal adenocarcinoma cell line, purchased from ATCC (American Type Culture Collection).
Culture medium: RPMI 1640 containing 10% FBS.
NCI-H716 cells were diluted with RPMI-1640 medium containing 10% FBS. 90 μL of the diluted cells were added into each well of a 96-well plate so that each well contained 1×10^4 cells. The cells were subsequently incubated at 37° C., 5% CO2 overnight.
Test compound dissolved in DMSO was diluted to 30, 10, 3.33, 1.11, 0.37, 0.12, 0.04, 0.01 μM with serum free RPMI-1640 medium containing 5% DMSO. Then 10 μL of the diluted compound was added into the above 90 μL cell cultures (final concentration of DMSO in the reaction mixture should be 0.5%), and incubated at 37° C., 5% CO2 for 72 h.
10 μL of CCK-8 solution was added into cells, and incubated at 37° C., 5% CO2 for additional 1 h. The optical density of each well was measured at 450 nm and 630 nm, respectively, by Labsystems Multiskan K3.
[formula] • [OD compound]450-630: the optical density of well containing cells with compound treatment; • [OD cell]450-630: the optical density of wells containing cells without compound treatment; • [OD background]450-630: the optical density of wells containing culture medium only.
IC50: IC50 is calculated based on the inhibition curve fitted by XL-Fit 2.0 software.

NCI-H716 tumor = assay: Anti-tumor efficacy in NCI-H716 subcutaneous xenograft model; assay type: in vivo; conditions: three weeks
Protocol: NCI-H716 cell line was purchased from ATCC (CCL-251™) and incubated in the medium of RPM11640 (Rosewell Park Memorial Institute 1640) plus 10% fetal bovine serum (FBS) at 37° C. in a 5% CO2 incubator.
BALB/c athymic male mice (6-8 weeks) were purchased from Shanghai SLAC Laboratory Animal Co. Ltd. The mice were housed under specific pathogen free conditions. They were maintained in a 12 hour light and dark cycle with the temperature at 20-25° C. and humidity of 40%-70% and given free access to Co^60 radiated-sterile diet and autoclaved sterile water. There were four mice in each cage.
Compound A was dissolved in 0.5% CMC-Na, vortexed for 1-3 min, sonicated for 15 min and stored at 4° C. Compound A was formulated at 2.0, 4.0 and 8.0 mg/mL and prepared once a week.
When NCI-H716 cells reached about 80-90% in confluence, they were detached by Trypsin-EDTA and collected after centrifugation, then suspended in serum free-medium. Each mouse was injected subcutaneously in the right lateral flank with 0.2 mL of cells suspension containing 5×10^6 tumor cells with Martrigel (1:1).
When the NCI-H716 tumors grew to around average 300 mm^3, the tumor bearing mice were randomized to vehicle and Compound A treated groups. Compound A in 0.5% CMC-Na as prepared above was orally administered to mice at 20, 40 and 80 mg/kg twice daily for three weeks, and the vehicle group received 0.5% CMC-Na orally twice daily. The dosing volume was 10 mL/kg body weight. Tumor volume (TV) was measured two times per week by caliper for length and width, and calculated using the formula: TV=width^2×length/2.
At the end of the study, tumors were harvested and tumor growth inhibition (TGI) and tumor weight inhibition (IRTW) were calculated by the following equations, where V0 were the data at day 0 (D0) (starting day) and Vt were the data at measurement day t (Dt):
TGI=[1−(Vt−V0)drug treated/(Vt−V0)vehicle]×100%
IRTW(%)=[(TWvehicle−TWtreatment)/TWvehicle]×100%
Student's t-test was used for in comparison with vehicle control. Differences were considered statistically significant at P<0.05.

[1] = 20 mg/kg bid oral, end of study

For `Cc1cc2cc(Oc3ccnc(Nc4cccc(CS(=O)(=O)NCCN(C)C)c4)n3)ccc2[nH]1` [Compound A, N-(2-(dimethylamino)ethyl)-1-(3-((4-((2-methyl-1H-indol-5-yl)oxy)pyrimidin-2-yl)amino)phenyl)-methanesulfonamide], the pIC50 (NCI-H716 cells) was 6.80, the “IRTW (tumor weight inhibition)” value (NCI-H716 tumor; [1]) was 49.9* % and the “TGI (tumor growth inhibition)” value (NCI-H716 tumor; [1]) was 57.1%. For the same compound, the “TGI (tumor growth inhibition)” value (NCI-H716 tumor; 40 mg/kg bid oral, end of study) was 73.9%, the “TGI (tumor growth inhibition)” value (NCI-H716 tumor; 80 mg/kg bid oral, end of study) was 80.0% and the “clinical signs of toxicity” value (NCI-H716 tumor; treated mice, 20, 40 and 80 mg/kg bid oral) was “No clinical signs of toxicity were observed”.
